Source: patent US4758574A, “2-phenylimidazio (4,5-c) pyridines” (Eli Lilly and Company, priority 1986, dated 1988)
Where a name gives a salt, the structure may show the parent alone. Read-outs that look alike come from different tables or passages of the source.

Columns and labels:
[1] = tested on: Ventricular Contractility in the Anesthetized Dog; assay: Ventricular Contractility in the Anesthetized Dog; type: in vivo, Mongrel dogs; conditions: Canis lupus familiaris, iv, i.v. bolus, read-out: ED50 (dose required to produce a peak increase in contractility of 50%)
Protocol: Experiments in Anesthetized Dogs Mongrel dogs of either sex ranging in weight from 7 to 14 kg. wer used. Anesthesia was induced with sodium pentobarbital (30 mg./kg., i.v.) and maintained with supplemental doses as required. A positive-pressure pump was used to ventilate the dogs through an endotracheal tube (18 strokes/minute, 20 ml./kg. stroke^-1), and a heating pad kept the body temperature at 37°-38° C. Femoral arterial blood pressure was measured through a polyethylene catheter filled with heparin solution (16 units/ml.) and connected to a Statham pressure transducer. A strain-gauge arch sutured to the right ventricle of the heart measured cardiac contractility. Tension on the gauge was adjusted to 50 g. and the gain of the recorder (Beckman dynograph) was set so that 50 g. caused a 10-mm. pen deflection; cardiac contractile tension was measured as millimeters of pen deflection or grams of tension. The drug was administered following a 30-45 minute equilibrium period as an i.v. bolus (2-5 ml.) in a normal saline vehicle. […] The maximum effects on contractility at various dose levels were determined and plotted and the dose required to produce a 50% increase in contractility (ED50) was determined by interpolation.

Cat Papillary Muscles = assay: Positive Inotropic Activity in Isolated Cat Papillary Muscles; type: cell-based; conditions: Felis catus, control = 100 percent, read-out: Contractility of Papillary Muscle (peak response); for activity at 100 µM: Drug Concentration 10^-4 M; for activity at 10 µM: Drug Concentration 10^-5 M
Protocol: Positive Inotropic Activity in Isolated Cat Papillary Muscles […] A platinum hook secured one end of the muscle to an electrode mounted in the bottom of the bath, and a silk thread attached the tendon to a Statham isometric transducer. The baths contained Krebs-Henseleit solution (36° C., bubbled with 95 percent oxygen--5 percent carbon dioxide) of the following millimolar composition: NaCl, 118; KCl, 4.5; CaCl2, 2.5; KH2 PO4, 1.1; MgSO4, 1.2; NaHCO3, 25; and glucose, 11. A base-line tension of 1.5 g. was applied to each muscle. Square-wave pulses (5.0 msec. in duration, three times threshold voltage) delivered through the hook electrode and a second electrode positioned near the top of the muscle evoked 12 contractions/minute, which were recorded on a Grass polygraph. After the muscles had equilibrated for 60 minutes, the recorder gain was adjusted so that the pen deflected 10 mm. The drug was introduced in a solution of normal saline in an amount to bring the final concentration of the drug to 10^-5 or 10^-4 molar. Increases in contractility were tabulated as millimeters of pen deflection in excess of the baseline value. In each experiment the maximum contractility was measured. Test results are summarized in Table I and are expressed as percent of control (control=100 percent). Values are the average of results from 2 to 8 muscles.

[2] = tested on: SRS-A release, guinea pig lung; assay: Inhibition of SRS-A (Slow-Reacting Substance of Anaphylaxis) From Guinea Pig Lung; type: cell-based; conditions: Cavia porcellus, sensitized guinea pig lung, ovalbumin antigen, read-out: percent inhibition of SRS-A release
Protocol: Inhibition of SRS-A (Slow-Reacting Substance of Anaphylaxis) From Guinea Pig Lung
Male, Hartley guinea pigs, usually 1-2 weeks old, were sensitized with respect to ovalbumin by intraperitoneal administration of 0.15 ml. hyperimmune serum obtained from guinea pigs actively sensitized against ovalbumin. After 2 days or more, the animals were decapitated, lungs were excised and perfused through the pulmonary artery with Krebs' bicarbonate solution of the following composition in mmoles/liter: KCl, 4.6; CaCl2.2 H2 O, 1.8; KH2 PO4, 1.2; MgSO4.7H2 O, 1.2; NaCl, 118.2; NaHCO3, 24.8; and dextrose, 10.0. Poorly perfused and bloody areas were discarded. Normal lung was cut into 1 mm. cubes with a McIlwain tissue chopper, washed with Krebs' solution and divided into 400 mg. aliquots. The fragmented tissue was then incubated at 37° C. for 15 minutes in Krebs' solution containing indomethacin to optimize SRS-A release and an appropriate concentration of experimental drug. Antigen (ovalbumin) was then added to make a final concentration of 1×10^-5 g./ml. Fifteen minutes later, the incubation medium was decanted and centrifuged at 3,000×g at 4° C. for 5 minutes. […] Release of SRS-A in the presence of the experimental drug was compared to a control sample and the results expressed as percent inhibition of SRS-A release.

## c1ccc(-c2nc3cnccc3[nH]2)cc1 [Example 7, 2-Phenylimidazo[4,5-c]pyridine]
[1]; tested as the hydrochloride salt
  ED50: 2.5 mg/kg
Cat Papillary Muscles
  activity at 100 µM: 192%
  activity at 10 µM: 107%

## COc1ccc(-c2nc3cnccc3[nH]2)c(OC)c1 [Example 8, 2-(2,4-Dimethoxyphenyl)imidazo[4,5-c]pyridine hydrochloride]
[1]
  ED50: 0.27 mg/kg
[2]; 1×10^-4 M
  inhibition at 100 µM: 45.1%
[2]; 1×10^-5 M
  inhibition at 10 µM: 19.4%
Cat Papillary Muscles
  activity at 100 µM: 172%
  activity at 10 µM: 158%

## CSc1ccc(-c2nc3cnccc3[nH]2)cc1.Cl [Example 9, 2-(4-methylmercaptophenyl)imidazo[4,5-c]pyridine hydrochloride]
[1]
  ED50: 4 mg/kg
Cat Papillary Muscles
  activity at 100 µM: 205%
  activity at 10 µM: 113%

## CCOc1ccc(-c2nc3cnccc3[nH]2)cc1.Cl [Example 13, 2-(4-ethoxyphenyl)imidazo[4,5-c]pyridine hydrochloride]
[1]
  ED50: 2.5 mg/kg
Cat Papillary Muscles
  activity at 100 µM: 157%
  activity at 10 µM: 104%

## COc1ccc(-c2nc3cnccc3[nH]2)cc1.Cl [Example 15, 2-(4-methoxyphenyl)imidazo[4,5-c]pyridine hydrochloride]
[1]
  ED50: 1.7 mg/kg
Cat Papillary Muscles
  activity at 100 µM: 204%
  activity at 10 µM: 104%

## COc1cc(SC)ccc1-c1nc2cnccc2[nH]1.Cl [Example 23, 2-(2-methoxy-4-methylmercaptophenyl)imidazo[4,5-c]pyridine hydrochloride]
[1]
  ED50: 0.21 mg/kg
Cat Papillary Muscles
  activity at 100 µM: 142%
  activity at 10 µM: 141%

## Cc1ccc(-c2nc3cnccc3[nH]2)c(C)c1 [Example 24, 2-(2,4-dimethylphenyl)imidazo[4,5-c]pyridine hydrochloride]
[1]
  ED50: 1.4 mg/kg
Cat Papillary Muscles
  activity at 100 µM: 94%
  activity at 10 µM: 87%

## Cc1ccccc1-c1nc2cnccc2[nH]1 [Example 26, 2-(2-methylphenyl)imidazo[4,5-c]pyridine hydrochloride]
[1]
  ED50: 2.2 mg/kg
Cat Papillary Muscles
  activity at 100 µM: 188%
  activity at 10 µM: 106%

## COc1cc([S+](C)[O-])ccc1-c1nc2cnccc2[nH]1 (centres unmarked) [Example 27, 2-(2-methoxy-4-methylsulfinylphenyl)imidazo[4,5-c]pyridine]
[1]
  ED50: 0.03 mg/kg
Cat Papillary Muscles
  activity at 100 µM: 200%
  activity at 10 µM: 245%

## CCCOc1cc(OC)ccc1-c1nc2cnccc2[nH]1 [Example 29, 2-(2-n-propoxy-4-methoxyphenyl)imidazo[4,5-c]pyridine]
[1]
  ED50: 1.3 mg/kg
Cat Papillary Muscles
  activity at 100 µM: 335%
  activity at 10 µM: 134%

## COc1ccc(-c2nc3cnccc3[nH]2)c(OCCSC)c1 [Example 39, 2-[2-(β-methylmercaptoethoxy)-4-methoxyphenyl]imidazo[4,5-c]pyridine]
[1]
  ED50: 1.1 mg/kg
Cat Papillary Muscles
  activity at 100 µM: 140%
  activity at 10 µM: 118%

## CCSCCOc1cc(OC)ccc1-c1nc2cnccc2[nH]1.Cl [Example 45, 2-[2-(β-ethylmercaptoethoxy)-4-methoxyphenyl]imidazo[4,5-c]pyridine h ydrochloride]
[1]
  ED50: 1 mg/kg
Cat Papillary Muscles
  activity at 100 µM: 125%
  activity at 10 µM: 122%

## Clc1ccc(-c2nc3cnccc3[nH]2)c(Cl)c1 [Example 47, 2-(2,4-dichlorophenyl)imidazo[4,5-c]pyridine]
[1]
  ED50: 0.67 mg/kg
Cat Papillary Muscles
  activity at 100 µM: 157%
  activity at 10 µM: 105%

## COc1cc(S(C)(=O)=O)ccc1-c1nc2cnccc2[nH]1 [Example 50, 2-(2-methoxy-4-methylsulfonylphenyl)imidazo[4,5-c]pyridine]
[1]
  ED50: 0.02 mg/kg
Cat Papillary Muscles
  activity at 100 µM: 221%
  activity at 10 µM: 176%

## COc1ccc(-c2nc3cnccc3[nH]2)c(OCC[S+](C)[O-])c1 (stereo not drawn) [Example 52, 2-[2-(β-methylsulfinylethoxy)-4-methoxyphenyl]imidazo[4,5-c]pyridine]
[1]
  ED50: 5.2 mg/kg
Cat Papillary Muscles
  activity at 100 µM: 185%
  activity at 10 µM: 122%

## CCCOc1cc([S+](C)[O-])ccc1-c1nc2cnccc2[nH]1 (centres unmarked) [Example 54, 2-(2-n-propoxy-4-methylsulfinylphenyl)imidazo[4,5-c]pyridine]
[1]
  ED50: 1 mg/kg
Cat Papillary Muscles
  activity at 100 µM: 159%
  activity at 10 µM: 122%

## COc1ccc(-c2nc3cnccc3[nH]2)cc1OC.Cl [Example 56, 2-(3,4-dimethoxyphenyl)imidazo[4,5-c]pyridine hydrochloride]
[1]
  ED50: 0.38 mg/kg
Cat Papillary Muscles
  activity at 100 µM: 252%
  activity at 10 µM: 163%

## COc1cc(C(F)(F)F)ccc1-c1nc2cnccc2[nH]1.Cl [Example 59, 2-(2-Methoxy-4-trifluoromethylphenyl)imidazo[4,5-c]pyridine hydrochloride]
[1]
  ED50: 0.005 mg/kg
Cat Papillary Muscles
  activity at 100 µM: 134%
  activity at 10 µM: 139%

## COc1cc([N+](=O)[O-])ccc1-c1nc2cnccc2[nH]1 [Example 60, 2-(2-Methoxy-4-nitrophenyl)imidazo[4,5-c]pyridine]
[1]
  ED50: 0.015 mg/kg
Cat Papillary Muscles
  activity at 100 µM: 145%
  activity at 10 µM: 142%
